The values below come from US12357680B2, “Inhibition of histone methyl transferases to treat cancer” (Albert-Ludwigs-Universitat Freiburg, priority 2018, dated 2025).

The term IC50 denotes the midpoint of a concentration-inhibition curve. The term Kd denotes the free concentration of one partner at which half of the binding sites on the other are occupied at equilibrium, for simple one-to-one binding. Lower therefore signals higher affinity.

One data set concerns the target NSD3 (Homo sapiens (Human), UniProt Q9BZ95). Description: Methyltransferase panel, 10-dose IC50 mode. To be noted: Substrate: Nucleosomes; 1 μM SAM; read-out: Control IC50*. The format is biochemical. How it is done:
(§1) Compound 72b was further tested against a plurality of methyltransferases as described in the following. […] Reactions were carried out at 1 μM SAM. Curve fits were performed where the enzyme activities at the highest concentration of compounds were less than 65%. […] Compound 72b is referred to as KMI9542321 in the table below.

In another data set the target is PRDM9 (Homo sapiens (Human), UniProt Q9NQV7). Description: Methyltransferase panel, 10-dose IC50 mode. The format is biochemical. Conditions: Substrate: Histone H3; 1 μM SAM; read-out: Control IC50*. How it is done:
as §1

In the next data set the target is ASH1L (Homo sapiens (Human), UniProt Q9NR48). Description: Methyltransferase panel, 10-dose IC50 mode. Type of data set: biochemical. Conditions: Substrate: Nucleosomes; 1 μM SAM; read-out: Control IC50*. The method, then:
as §1

The next data set has as its system A549 lung tumour cells. Description: Cell proliferation, xCelligence RTCA. The format is cell-based. To be noted: final concentration of 30 μM, vs DMSO. The method, then: (§2) Compound 75b was tested in a proliferation assay in cell culture as described in the following. Thus, compound 75b (alternatively referred to as “KMI95423411”) was added to a final concentration of 30 μM (in the controls, DMSO as added) to cells of the following cell lines: LNCaP, SW-480, A549, MDA-MB-468 and HepG2, and the cells were cultured in the presence of inhibitor or DMSO. At the time points indicated in FIG. 15, the cells were seeded in E-plates and the cell proliferation was determined using the xCelligence RTCA system (Roche) as described below.
(§3) Cell proliferation, migration and invastion were determined using the X-Celligence RTCA system (Roche). pLenti-LacZ, pLenti-KMT9α, pLenti-KMT9α(N122A), pLenti-KMT9α(Y125A) pLenti-ETF1, pLenti-shLaZ, and pLenti-shKMT9α constructs were used to produce recombinant lentiviruses to infect LNCaP and PC-3M cells as described in Metzger et al., 2005. For real-time recording of LNCaP, LNCaP-abl, LNCaP-abl EnzaR, and C4-2B cell proliferation, 20000 cells/well were seeded in 16 well E-plates (Roche). For PC-3M, 2500 cells/well were used. For DuCaP EnzaR, LAPC4 and LAPC4 EnzaR, 40000 cells/well were used. Cells were transfected with the indicated siRNAs in presence of Dharmafect 1 (LNCaP-abl, LAPC4, LAPC4 EnzaR; Dharmacon), Dharmafect 2 (LNCaP, PC-3M), or RNAiMAx (C4-2B, LNCaP-abl EnzaR, DuCaP EnzaR; Caco-2, HT-29, SK-N-SH, SW620, SW480, HT-29, HT-115, HCT116 p53+/+ and HCT p53−/−; Life Technologies) 24 h before seeding in E-plates. Cell indices were automatically recorded every 15 minutes. Relative velocities represent the change of the cell index over time. The sequences of the siRNAs (Stealth RNAi™ siRNAs; Life Technologies) used in the experiments are as following: siCtrl: […]

Data set [1] deals with MDA-MB-468 breast cancer cells. Description: Cell proliferation, xCelligence RTCA. The format is cell-based. To be noted: final concentration of 30 μM, vs DMSO. How it is done: as §2, §3
The test system of the next data set is HepG2 cells. Description: Cell proliferation, xCelligence RTCA. Type of data set: cell-based. To be noted: final concentration of 30 μM, vs DMSO; KMT9 non-responsive cells. How it is done: as §2, §3
The test system of data set [2] is SW-480 colorectal cancer cells. Description: Cell proliferation, xCelligence RTCA. The format is cell-based, human. Conditions: final concentration of 30 μM, vs DMSO. The method, then:
as §2, §3

For data set [3], the system named is LNCaP prostate tumour cells. Description: Cell proliferation, xCelligence RTCA. The format is cell-based, human. How it is done: as §2, §3
Data set [4] deals with recombinant KMT9 (C21orf127/TRMT112) (Homo sapiens (Human), UniProt Q9Y5N5). Description: Histone H4 methylation assay with SAM[3H], autoradiography. Type of data set: biochemical. Conditions: histone H4, SAM[3H]. The method, then: FIG. 1 C21orf127/TRMT112 methylates histone H4 at K12. (A to C) Methylation assays. (A) Histone H4, H3, H2A, H2B, and H1 were incubated with SAM[^3H] in the absence or presence of recombinant C21orf127/TRMT112. (B) Wild-type or mutant histone H4 were incubated with SAM[3H] in the presence of recombinant C21orf127/TRMT112. Proteins were stained by Ponceau red. […] (C) Histone H4 was incubated with C21orf127/TRMT112, SAM[^3H], and the SAM competitive inhibitor sinefungin as indicated. Proteins were stained by Ponceau red.
Sequence of recombinant KMT9 (C21orf127/TRMT112) (Q9Y5N5 whole entry): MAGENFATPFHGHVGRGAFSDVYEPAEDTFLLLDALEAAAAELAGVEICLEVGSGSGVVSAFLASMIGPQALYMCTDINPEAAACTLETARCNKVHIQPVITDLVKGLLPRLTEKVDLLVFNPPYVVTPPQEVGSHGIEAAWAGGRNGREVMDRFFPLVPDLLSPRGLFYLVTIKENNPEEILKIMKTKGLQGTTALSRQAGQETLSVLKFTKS
Sequence of recombinant KMT9 (C21orf127/TRMT112) (Q9UI30 whole entry partner): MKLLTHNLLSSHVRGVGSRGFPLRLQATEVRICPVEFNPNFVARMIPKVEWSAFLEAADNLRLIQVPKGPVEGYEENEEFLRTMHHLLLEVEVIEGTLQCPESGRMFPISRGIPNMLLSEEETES
FIG. 9. […] Histone H4 (2 μg) was incubated with SAM[3H] in the presence of recombinant KMT9 (KMT9α and KMT90) and the three afore-mentioned inhibitors as indicated.
It was tested in this example whether the known DOT1L-inhibitors EPZ5676, SGC0946 and EPZ004777 (which are commercially available) are capable of inhibiting KMT9. To this aim, histone H4 was incubated with SAM[^3H] in the presence of recombinant KMT9 (provided in the form of the heterodimer of KMT9α and KMT90) and the three afore-mentioned inhibitors.
Four to eight μg of purified recombinant His-C21orf127, His-C21orf127/TRMT112, His-C21orf127(D103A)/TRMT112, His-C21orf127(N122A)/TRMT112, His-C21orf127(Y125A)/TRMT112, His-TRMT112, WBSCR22/TRMT112, His-TRMT11, His-TRMT12, His-KIAA1456, His-TRMT5, His-METTL27, His-METTL21A and His-METTL21B were incubated either with 4 μg core histones or 2 μg of histones H4, H3, H2A, H2B, H1 (BPS Bioscience), histone H4K12A, or His-ETF1 as indicated in methylation buffer (10 mM Tris-HCl pH 7.6, 50 mM KCl, 10 mM Mg(OAc)2, 1 mM DTT) supplemented as indicated with 1.5 μM SAM or 1.5 μl of radioactively labelled [^3H]SAM for 60 min (METTL21A: 300 minutes, METTL21B: 18 h) at 30° C. For mass spectrometry analysis, 2 μg of histone H4 were incubated overnight with 2 μg of His-C21orf127/TRMT112 in presence of SAM, heavy SAM, or SAM/heavy SAM mixture. The reaction mixture was analysed by autoradiography, Western blotting, or mass spectrometry.

The next data set concerns the target SET8 (Homo sapiens (Human), UniProt Q9NQR1). Description: Methyltransferase panel, 10-dose IC50 mode. Conditions: Substrate: Nucleosomes; 1 μM SAM; read-out: Control IC50*. Type of data set: biochemical. The method, then:
as §1

The target of the next data set is C21orf127 (Homo sapiens (Human), UniProt Q9Y5N5). Description: Isothermal titration calorimetry (ITC) SAM binding. To be noted: monomeric C21orf127. How it is done:
(§4) ITC experiments were performed at 20° C. with a MicroCal VP-ITC microcalorimeter (Malvern). […] ITC data were analysed and fitted with one-site binding model by using Origin 7.0.

The target in the next data set is TRMT112 (Homo sapiens (Human), UniProt Q9UI30). Description: Isothermal titration calorimetry (ITC) SAM binding. Conditions: monomeric TRMT112. How it is done:
as §4
On the technique in general: Isothermal titration calorimetry measures the heat released or taken up as one component is titrated into another.

The next data set has as its target C21orf127/TRMT112 (Homo sapiens (Human), UniProt Q9Y5N5). Description: Isothermal titration calorimetry (ITC) SAM binding. To be noted: 20° C. The method, then:
as §4

The target in the next data set is C21orf127(D103)/TRMT112 (Homo sapiens (Human), UniProt Q9Y5N5, D103A). Description: Isothermal titration calorimetry (ITC) SAM binding. To be noted: mutant heterodimer. The method, then: as §4
Sequence of C21orf127(D103)/TRMT112 (Q9Y5N5 whole entry D103A): as the sequence (Q9Y5N5 whole entry) above, with D103A counted along it
Sequence of C21orf127(D103)/TRMT112 (Q9UI30 whole entry partner): as the sequence (Q9UI30 whole entry partner) above
A further data set relates to PC-3M xenograft tumours. Description: Growth of xenograft tumours in NOD/SCID mice. Conditions: cells infected with lentivirus, subcutaneous, vs miRNA Ctrl. Type of data set: in vivo. From the text: (§5) It was investigated whether KMT9α loss might affect tumour growth in mice. Therefore, PC-3M and LNCaP cells were infected with lentivirus driving expression of either miRNA control (miRNA Ctrl) or miRNA against KMT9α (miRNA KMT9α) and implanted subcutaneously in the flank of immunocompromised mice. […] To investigate whether knockdown of KMT9α also blocks growth of enzalutamide-resistant tumours, LAPC4 EnzaR miCtrl and miKMT9α cells were implanted subcutaneously in the flank of immunocompromised, castrated mice.
(§6) pLenti6-miRNA Control and pLenti6-miRNA KMT9α constructs were used to produce recombinant lentiviruses to infect LNCaP, PC-3M and LAPC4 EnzaR cells as described^26. Five-week-old male severe combined immunodeficient mice were purchased from Charles River Laboratories. For tumour inoculation 5×10^6 LNCaP, 2×10^6 PC-3M, and 5×10^6 LAPC4 EnzaR cells infected with pLenti6-miRNA Control or pLenti6-miRNA KMT9α constructs were injected in NOD/SCID mice, respectively. Mice were castrated one week before injection of LAPC4 EnzaR. Cells were resuspended in 100 μl RPMI1640 mixed with 100 μl Matrigel (BD Biosciences) on ice and administered subcutaneously in the flank of each animal. The tumour size was determined by calliper measurements two times a week^24. Tumour volumes were calculated using the formula 4/3×π×r3. All experiments were performed according to the German Animal Protection Law with permission from the responsible local authorities.

Data set [5] has as its system LAPC4 EnzaR xenograft tumours. Description: Growth of xenograft tumours in NOD/SCID mice. The format is in vivo. To be noted: castrated mice, subcutaneous, vs miCtrl.
From the text: as §5, §6

The subject of another data set is LNCaP xenograft tumours. Description: Growth of xenograft tumours in NOD/SCID mice. Type of data set: in vivo. Conditions: cells infected with lentivirus, subcutaneous, vs miRNA Ctrl.
From the text: as §5, §6

Sequence of PRDM9 (Q9NQV7 whole entry): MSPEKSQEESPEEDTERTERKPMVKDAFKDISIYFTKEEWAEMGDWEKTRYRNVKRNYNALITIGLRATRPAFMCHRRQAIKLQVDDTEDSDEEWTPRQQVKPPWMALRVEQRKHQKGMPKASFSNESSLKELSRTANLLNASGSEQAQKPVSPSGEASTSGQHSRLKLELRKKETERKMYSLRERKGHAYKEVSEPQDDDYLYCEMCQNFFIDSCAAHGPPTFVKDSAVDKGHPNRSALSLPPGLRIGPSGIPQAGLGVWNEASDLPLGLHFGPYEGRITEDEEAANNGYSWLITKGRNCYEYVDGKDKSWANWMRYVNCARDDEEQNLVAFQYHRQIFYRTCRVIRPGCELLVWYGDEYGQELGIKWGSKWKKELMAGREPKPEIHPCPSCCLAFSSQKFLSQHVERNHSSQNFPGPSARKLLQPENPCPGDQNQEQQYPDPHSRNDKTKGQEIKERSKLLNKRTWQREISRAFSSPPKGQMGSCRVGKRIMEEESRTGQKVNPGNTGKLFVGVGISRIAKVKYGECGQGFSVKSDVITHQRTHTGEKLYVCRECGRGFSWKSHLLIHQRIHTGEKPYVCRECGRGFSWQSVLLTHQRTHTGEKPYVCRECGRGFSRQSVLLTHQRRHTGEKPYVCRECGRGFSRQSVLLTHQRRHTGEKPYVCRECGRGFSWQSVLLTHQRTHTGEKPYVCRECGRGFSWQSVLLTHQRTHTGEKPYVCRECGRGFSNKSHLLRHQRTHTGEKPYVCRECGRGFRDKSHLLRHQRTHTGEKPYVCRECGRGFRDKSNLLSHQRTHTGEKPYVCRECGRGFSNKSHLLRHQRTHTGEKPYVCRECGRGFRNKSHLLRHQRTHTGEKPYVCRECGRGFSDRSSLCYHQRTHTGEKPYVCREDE
Sequence of TRMT112 (Q9UI30 whole entry): as the sequence (Q9UI30 whole entry partner) above
Sequence of C21orf127 (Q9Y5N5 whole entry): as the sequence (Q9Y5N5 whole entry) above
Sequence of C21orf127/TRMT112 (Q9Y5N5 whole entry): as above
Sequence of C21orf127/TRMT112 (Q9UI30 whole entry partner): as the sequence (Q9UI30 whole entry partner) above
Sequence of NSD3 (Q9BZ95 whole entry): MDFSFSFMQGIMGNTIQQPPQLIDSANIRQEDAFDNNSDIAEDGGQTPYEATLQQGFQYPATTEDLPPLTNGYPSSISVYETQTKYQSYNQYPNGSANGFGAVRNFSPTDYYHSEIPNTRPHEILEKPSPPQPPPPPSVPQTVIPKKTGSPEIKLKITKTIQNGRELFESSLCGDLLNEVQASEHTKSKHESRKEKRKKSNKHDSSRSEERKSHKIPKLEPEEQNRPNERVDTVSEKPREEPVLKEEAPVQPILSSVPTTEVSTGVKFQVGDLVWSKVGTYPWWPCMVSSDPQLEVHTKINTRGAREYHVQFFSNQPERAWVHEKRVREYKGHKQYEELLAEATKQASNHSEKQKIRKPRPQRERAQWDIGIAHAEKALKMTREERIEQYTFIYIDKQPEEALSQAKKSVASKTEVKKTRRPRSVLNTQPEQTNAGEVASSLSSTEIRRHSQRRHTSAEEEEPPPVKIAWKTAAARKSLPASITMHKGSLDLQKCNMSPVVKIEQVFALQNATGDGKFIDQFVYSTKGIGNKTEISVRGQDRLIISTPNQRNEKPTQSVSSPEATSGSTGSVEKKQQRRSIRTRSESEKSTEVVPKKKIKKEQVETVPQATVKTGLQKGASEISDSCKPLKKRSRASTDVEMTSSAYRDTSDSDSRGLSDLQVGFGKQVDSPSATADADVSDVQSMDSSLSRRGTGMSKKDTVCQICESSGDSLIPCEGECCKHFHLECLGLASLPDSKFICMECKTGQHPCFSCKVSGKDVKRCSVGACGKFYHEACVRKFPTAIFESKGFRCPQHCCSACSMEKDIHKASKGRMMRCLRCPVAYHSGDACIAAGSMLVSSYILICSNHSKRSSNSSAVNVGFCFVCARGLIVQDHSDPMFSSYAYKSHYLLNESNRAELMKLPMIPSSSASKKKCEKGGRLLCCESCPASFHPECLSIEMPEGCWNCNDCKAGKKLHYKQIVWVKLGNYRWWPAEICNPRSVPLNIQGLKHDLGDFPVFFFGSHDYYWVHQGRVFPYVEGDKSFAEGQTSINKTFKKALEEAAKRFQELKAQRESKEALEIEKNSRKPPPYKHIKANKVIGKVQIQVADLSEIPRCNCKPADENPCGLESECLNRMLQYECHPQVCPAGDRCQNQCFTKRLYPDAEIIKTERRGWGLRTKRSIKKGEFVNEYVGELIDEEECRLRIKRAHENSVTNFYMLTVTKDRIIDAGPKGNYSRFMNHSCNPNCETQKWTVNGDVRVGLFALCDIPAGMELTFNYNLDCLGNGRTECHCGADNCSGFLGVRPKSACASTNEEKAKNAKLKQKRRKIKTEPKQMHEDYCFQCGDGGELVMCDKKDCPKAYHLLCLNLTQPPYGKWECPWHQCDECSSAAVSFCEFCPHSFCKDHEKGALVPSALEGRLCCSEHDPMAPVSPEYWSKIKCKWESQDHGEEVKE
Sequence of SET8 (Q9NQR1 whole entry): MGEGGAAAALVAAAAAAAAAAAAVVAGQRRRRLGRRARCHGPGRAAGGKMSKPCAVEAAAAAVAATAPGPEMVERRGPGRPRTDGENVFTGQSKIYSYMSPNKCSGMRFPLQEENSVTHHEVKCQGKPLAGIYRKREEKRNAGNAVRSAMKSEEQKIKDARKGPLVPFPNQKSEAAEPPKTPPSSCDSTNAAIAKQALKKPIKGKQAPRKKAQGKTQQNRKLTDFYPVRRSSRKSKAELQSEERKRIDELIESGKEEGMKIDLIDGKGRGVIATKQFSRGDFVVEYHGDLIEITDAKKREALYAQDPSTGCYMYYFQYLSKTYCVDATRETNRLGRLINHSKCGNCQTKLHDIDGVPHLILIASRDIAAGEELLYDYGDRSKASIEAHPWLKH

As to `CN1C(=O)[C@@]23C[C@]4([C@]56C[C@@]78SS[C@@](CO)(C(=O)N7[C@H]5Nc5ccccc56)N(C)C8=O)c5ccccc5N[C@@H]4N2C(=O)[C@]1(CO)SS3` [Chaetocin], the IC50 at NSD3 came to 58.8 nM; at PRDM9, 354 nM; at ASH1L, 27.4 nM.
As for `CNc1ncnc2c1ccn2[C@@H]1C[C@H](CN(CCCNCCc2cccc(Oc3ccccc3)c2)CC[C@H](N)C(=O)OC)[C@@H](O)[C@H]1O` [Compound 75b, methyl (S)-2-amino-4-((((1R,2R,3S,4R)-2,3-dihydroxy-4-(4-(methylamino)-7H-pyrrolo[2,3-d]pyrimidin-7-yl)cyclopentyl)methyl)(3-((3-phenoxyphenethyl)amino)propyl)amino)butanoate], the proliferation result is “blocks proliferation” with A549 lung tumour cells; “blocks proliferation” in data set [1]; “does not affect proliferation” in the data set with HepG2 cells; “blocks proliferation” in data set [2]; “blocks proliferation” in data set [3] (final concentration of 30 μM, vs DMSO).
Consider `CC(C)N(CCCNC(=O)Nc1ccc(C(C)(C)C)cc1)C[C@H]1O[C@@H](n2ccc3c(N)ncnc32)[C@H](O)[C@@H]1O` [EPZ004777], for which the “HMT activity of KMT9 (histone H4 methylation)” value (from here on “HMT activity of KMT9”) in data set [4] is “do not inhibit”.
On to `CC(C)N(C[C@H]1O[C@@H](n2cnc3c(N)ncnc32)[C@H](O)[C@@H]1O)[C@H]1C[C@@H](CCc2nc3cc(C(C)(C)C)ccc3[nH]2)C1` [EPZ5676], for which, in [4], the “HMT activity of KMT9” value is listed as “do not inhibit”.
For the molecule `Cc1ccc(NC2=CC(=O)c3sc(C)nc3C2=O)cc1` [Ryuvidine], the IC50 at SET8 stood at 775 nM.
For `C[S+](CC[C@H](N)C(=O)[O-])C[C@H]1O[C@@H](n2cnc3c(N)ncnc32)[C@H](O)[C@@H]1O` (stereo partly drawn) [SAM, S-adenosyl-methionine], the SAM binding entry on C21orf127, at TRMT112 and at C21orf127(D103)/TRMT112 was “no SAM binding” throughout. The molecule also had a Kd at C21orf127/TRMT112 of 2500 nM.
As for `CC(C)N(CCCNC(=O)Nc1ccc(C(C)(C)C)cc1)C[C@H]1O[C@@H](n2cc(Br)c3c(N)ncnc32)[C@H](O)[C@@H]1O` [SGC0946], in data set [4], the “HMT activity of KMT9” value is “do not inhibit”.
With `Nc1ncnc2c1ncn2[C@@H]1O[C@H](C[C@@H](N)CC[C@H](N)C(=O)O)[C@@H](O)[C@H]1O` [sinefungin], the “HMT activity of KMT9” value in data set [4] was “blocked”.
For “siKMT9α-3′UTR: siRNA that targets the three-prime untranslated region of the endogenously transcribed KMT9α mRNA (SEQ ID NO: 4) (GGAACUACAUUAGACUUAGUGGAAA; listed as RNA, chemistry not given here)”, the proliferation result in data set [3] (LNCaP-LacZ control cells, vs siCtrl) was “strongly impaired”.

B1: miRNA KMT9α: miRNA against KMT9α expressed from lentivirus pLenti6-miRNA KMT9α (SEQ ID NO: 1, 2) (nucleic acid)
chain 1: TGCTGATGTGAACTTTGTTACAGCGTGTTTTGGCCACTGACTGACACGCTGTAAAAGTTCACAT
chain 2: CCTGATGTGAACTTTTACAGCGTGTCAGTCAGTGGCCAAAACACGCTGTAACAAAGTTCACATC
With B1, the “growth and final weight of xenografts” value (with PC-3M xenograft tumours; in data set [5]; in the data set with LNCaP xenograft tumours) was “strongly reduced” throughout.
